Entries after “also recorded” stand apart in the source; their conditions may differ.
Experiments:
[1] = test system: human APP co-expressed in HEK 293T cells; experiment: α-CTF produced by APP co-expressed in HEK 293T cells (Western blot); format: cell-based; conditions: for α-CTF produced by co-expressed APP: Western blot, vs GFP control
Protocol: • a) A plasmid expressing the target protein in mammalian cells was constructed, and the protein expression promoter is CAG. • b) The target protein was expressed in HEK 293T cell line. Cells were subcultured one day before transfection, and transfection was performed when the degree of cell adhesion reached 70%-80%. The transfection reagent was lipofectamine2000 (ThermoFisher). • c) 4-6 hours post transfection, the medium were replaced with fresh cell culture medium. • d) 36-48 hours post transfection, the cells were lysed (10% 1M tris-HCl (pH=6.8), 4% SDS, 20% glycerol, 0.01% bromophenol blue), and the protein samples were collected and used for Western blot or stored in a −80° C. freezer. • e) Polyacrylamide gel electrophoresis. Before protein loading, the protein was boiled at 98° C. for 10 min, and then centrifuged at 12000 rpm for 10 min. Electrophoresis: 80V for the upper stacking gel; 120V for the lower separating gel. • f) Protein transfer. The filter paper was soaked in the electrophoresis solution before use, and the PVDF membrane was put in methanol for 10s to activate, and the gel after electrophoresis was taken out from the electrophoresis tank, put in the order of filter paper—PVD membrane—gel-filter paper from bottom to top, and they were put into the transfer instrument, with transferring in constant current at 0.1 A for 70 min. • g) Blocking and antibody incubation: the transferred PVDF membrane was placed in 5% BSA/TBST blocking solution, and blocked on a shaker at room temperature for 1 hour. The primary antibody was used to incubate at 4° C. overnight on a shaker (12-16 h); 1×TBST was used to wash three times, once every 10 minutes; the secondary antibody was used to incubate, shaked at room temperature for 1-2 h; 1×TBST was used to wash three times, once every 10 minutes. • h) Imaging by development: development was performed with ECL chemiluminescence hypersensitive chromogenic reagent.
(§1) Plasmids were transfected in HEK 293T or N2A cells for 36-48 hours and then lysed in cell lysis buffer [10% 1M tris-HCl (pH=6.8), 4% SDS, 20% glycerol, 0.01% bromophenol blue]. Lysates were shaken at room temperature for 10 min, then boiled for 10 min, and centrifuged at 12,000×g for 10 min. Proteins were run on 8% or 12% Tris-glycine SDS-PAGE and transferred to PVDF membranes (Life Technologies). Samples were incubated overnight at 4° C. with primary antibody diluted in 5% BSA buffer (in 1×TBST). After washing 3 times with 1×TBST, they were incubated with secondary antibody diluted in 5% BSA buffer (in 1×TBST) for 2 hours at room temperature. Finally, after washing 3 times with 1×TBST, the signal was detected by ECL Western blotting substrate (Solarbio, PE0010).
(§2) Data were analyzed by GraphPad Prism software (v6) using unpaired, paired, or one-sample t-tests. Aβ40 and Aβ42 levels were normalized to the corresponding GFP controls. α-CTF levels were normalized to FL-APP and corresponding GFP controls. All data are represented as mean±SEM. Statistical significance was defined as p<0.05. One, two, three and four stars (*) in the graph indicate p-values <0.05, <0.01, <0.001 and <0.0001, respectively.

N100 (NOTCH fragment) = experiment: γ-cleavage of NOTCH fragment N100 in HEK 293T cells co-expressing γ-secretase (Western blot); format: cell-based; conditions: N100-V5 and γ-secretase, PF03084014 at 1 uM
Protocol: as §1

[2] = test system: endogenously expressed APP in primary cultured mouse neurons; experiment: APP metabolite ~14 kD CTF in primary cultured mouse neurons (Western blot); format: cell-based; conditions: PF03084014 at 1 uM
[3] = test system: γ-secretase (PS1, PS2) knockout HEK 293T cells; experiment: PS1 KO, PS2 KO and PS1/2 dKO HEK 293T cell lines: α-CTF and Aβ40; format: cell-based, human; conditions: PS1 single knockout HEK 293T cells
Protocol: (§3) • a) A plasmid expressing the target protein in mammalian cells was constructed, and the protein expression promoter is CAG. • b) The target protein was expressed in HEK 293T cell line. Cells were subcultured one day before transfection, and transfection was performed when the degree of cell adhesion reached 70%-80%. The transfection reagent was lipofectamine2000 (ThermoFisher). • c) 4-6 hours post transfection, the medium were replaced with fresh cell culture medium. • d) 36-48 hours post transfection, the cells were lysed (10% 1M tris-HCl (pH=6.8), 4% SDS, 20% glycerol, 0.01% bromophenol blue), and the protein samples were collected and used for Western blot or stored in a −80° C. freezer. • e) Polyacrylamide gel electrophoresis. Before protein loading, the protein was boiled at 98° C. for 10 min, and then centrifuged at 12000 rpm for 10 min. Electrophoresis: 80V for the upper stacking gel; 120V for the lower separating gel. • f) Protein transfer. […]

APLP1 = experiment: γ-cleavage of APLP1 expressed in HEK 293T cells (Western blot); format: cell-based; conditions: PF03084014 at 1 μM
Protocol: as §3
Plasmids were transfected in HEK 293T or N2A cells for 36-48 hours and then lysed in cell lysis buffer [10% 1M tris-HCl (pH=6.8), 4% SDS, 20% glycerol, 0.01% bromophenol blue]. […] Finally, after washing 3 times with 1×TBST, the signal was detected by ECL Western blotting substrate (Solarbio, PE0010).

human γ-secretase = molecular target: T1, human γ-secretase (Homo sapiens, UniProt P49768); experiment: Purified system: cleavage of purified β-CTF by purified γ-secretase to Aβ40 (ELISA); format: biochemical
T1 construct: full-length PS1, FL-PS1; N-terminal fragment of PS1, PS1 NTF; C-terminal fragment of PS1, PS1 CTF; made in house; host or cells: HEK 293T

[4] = test system: human APP and β-secretase co-expressed in HEK 293T cells; experiment: HEK 293T cells co-expressing APP and β-secretase (BACE1): Aβ ELISA and β-CTF Western blot; format: cell-based; conditions: APP and β-secretase co-expressed, ELISA, vs GFP control
Protocol: The experiment was performed according to the standard procedure in the ELISA analysis kit of Invitrogen Company. • a) The target protein was expressed in HEK 293T cell line. Cells were subcultured one day before transfection, and transfection was performed when the degree of cell adhesion reached 70%-80%. The transfection reagent was lipofectamine2000 (ThermoFisher). • b) 4-6 hours post transfection, medium were replaced with fresh cell culture medium. • c) 36-48 hours post transfection, the cell culture medium was collected, and then the ELISA process was performed or the cell culture medium was frozen in a −80° C. refrigerator. • d) 50 μl of standard samples and experimental samples were added to each well of the 96-well plate. • e) 50 μl of human-derived Aβ40 or Aβ42 or mouse-derived Aβ40 detection antibody was added to each well of the 96-well plate. • f) The above samples were shaken gently and placed at room temperature for 3 hours. • g) The liquid in the well were removed, and the plate was washed 4 times with 1× wash buffer. • h) 100 μl of the buffer containing 1× anti-Rabbit IgG HRP was added. • i) The plate was shaken gently and placed at room temperature for […]. • j) The liquid in the well were removed, and the well was washed 4 times with 1× wash buffer. • k) 100 μl of Stabilized Chromogen was added to each well, and the plate was placed in the dark for 30 minutes at room temperature. • l) 100 μl of Stop Solution was added to each well. • m) The absorbance at 450 nm was measured with a microplate reader. 2.4 qRT-PCR
48 hours after transfection of HEK 293T cells and N2A cells, or 4.5 days after lentivirus infection of neurons, media and lysates were collected. Aβ40 and Aβ42 in the culture medium and cell lysates were detected by an Aβ ELISA kit as indicated in the protocol. (Invitrogen Technology; KHB3481 for human Aβ40, KHB3441 for human Aβ42 and KMB3481 for mouse Aβ40).
as §2

PS2 = molecular target: T2, PS2 (Homo sapiens, UniProt P49810); experiment: ApoE2-APEX2 proximity labeling of co-expressed PS2 in HEK 293T cells; format: binding
T2 construct: expressed in transfected cells; host or cells: HEK 293T
Protocol: (§4) A method for detecting protein interactions in living cells by targeting APEX2 was applied as previously described (Hung et al., 2016). Approximately 30 hours after transfection with APEX2 plasmids via Lipofectamine2000 (Invitrogen Technology), HEK 293T cells were incubated in 1 ml of complete medium with or without 250 uM biotinphenol (BP) for 30 minutes at 37° C. Cells were treated with 1 mM H2O2 for 1 min and cells were washed 3 times in quencher solution (10 mM sodium ascorbate, 5 mM Trolox and 10 mM sodium azide solution in 1×DPBS). Cells were lysed in RIPA lysis buffer (1× protein inhibitor cocktail, 1 mM PMSF and 10 mM sodium ascorbate, 5 mM Trolox and 10 mM sodium azide). The lysate was sonicated and centrifuged on ice (12,000×g, 4° C., 10 min), and the supernatant was incubated with streptavidin magnetic beads overnight at 4° C. The beads were collected using a magnetic rack and washed with a series of buffers (twice with RIPA buffer, once with 1M KCl, once with 0.1M Na2CO3, twice with 2 M urea in 10 mM Tris-HCl, pH 8.0, and twice with RIPA lysis buffer. Biotinylated proteins were eluted from the beads by boiling each sample in loading buffer comprising 2 mM biotin and 20 mM DTT for 10 min, and the eluates were collected. Samples proceed to Western blot.

APP = experiment: APEX2 proximity labeling between ApoE and APP in HEK 293T cells; format: binding, human; conditions: co-expressed in HEK 293T cells
Chain of APP (P05067 672-770 limits assumed): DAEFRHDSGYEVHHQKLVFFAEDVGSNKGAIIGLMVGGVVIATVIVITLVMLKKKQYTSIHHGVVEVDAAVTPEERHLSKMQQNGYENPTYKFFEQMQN
Protocol: as §4

ADAM10 (α-secretase) = molecular target: T3, ADAM10 (α-secretase) (Homo sapiens, UniProt O14672); experiment: ApoE2-APEX2 proximity labeling of co-expressed ADAM10 in HEK 293T cells; format: binding
T3 construct: expressed in transfected cells; host or cells: HEK 293T
T3 sequence (O14672 214-748): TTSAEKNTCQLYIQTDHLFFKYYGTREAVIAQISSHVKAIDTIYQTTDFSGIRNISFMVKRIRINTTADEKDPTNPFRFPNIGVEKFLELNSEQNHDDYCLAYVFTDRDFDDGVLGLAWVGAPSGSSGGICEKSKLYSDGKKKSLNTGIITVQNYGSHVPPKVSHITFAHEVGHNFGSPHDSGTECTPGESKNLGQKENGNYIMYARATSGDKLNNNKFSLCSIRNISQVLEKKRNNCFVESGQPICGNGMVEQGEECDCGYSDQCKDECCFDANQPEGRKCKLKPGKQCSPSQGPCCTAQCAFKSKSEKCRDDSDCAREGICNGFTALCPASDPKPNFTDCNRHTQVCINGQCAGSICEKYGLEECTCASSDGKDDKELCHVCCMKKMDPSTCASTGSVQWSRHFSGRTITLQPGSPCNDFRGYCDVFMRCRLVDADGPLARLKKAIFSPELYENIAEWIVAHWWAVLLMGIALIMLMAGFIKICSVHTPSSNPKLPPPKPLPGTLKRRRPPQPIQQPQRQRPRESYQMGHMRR
Protocol: as §4

[5] = test system: endogenously expressed APP; experiment: APEX2 proximity labeling of endogenous APP in primary cultured neurons; format: binding; conditions: primary cultured rat neurons
[6] = test system: APP co-expressed in mouse neuron cell line N2A; experiment: α-CTF produced by APP co-expressed in N2A cells (Western blot); format: cell-based; conditions: Western blot, vs GFP control
Protocol: as §1, §2

CNC(=O)[C@@H](NC(=O)[C@H](CCCc1ccccc1)[C@H](C)N(O)C=O)C(C)(C)C [GI254023X, reference compound]
α-CTF level after ADAM10 inhibitor ([1]; 1 μM): about 45%

CCC[C@H](N[C@H]1CCc2cc(F)cc(F)c2C1)C(=O)Nc1cn(C(C)(C)CNCC(C)(C)C)cn1 [PF03084014]
γ-secretase-dependent reduction of N100 (N100 (NOTCH fragment)): reversed this reduction
α-CTF produced by APP co-expressed with PS1 ([1]; APP and PS1 co-expressed, PF03084014 at 1 μM): significantly increases α-CTF; also recorded: can increase the production of α-CTF; also recorded: also increases α-CTF
level of ~14 kD CTF (CTF141D) produced by APP metabolism [2]: significantly increased
α-CTF in PS1 KO cells [3]: further increased α-CTF levels
α-like CTF of APLP1 (APLP1): significantly increase the α-like CTF; also recorded: enhancing its cleavage product; also recorded: increased the α-like CTF
generation of Aβ by γ-secretase and β-CTF (human γ-secretase; 10 μM inhibitor): can inhibit the generation of Aβ; also recorded: can be inhibited
Aβ40 produced by incubation of γ-secretase with β-CTF (human γ-secretase; Example 2, legend b49: 1 uM inhibitor): complete blocked

ApoA1: another apolipoprotein co-expressed with APP, apolipoprotein A1
production of Aβ40 [4]: failed to alter
α-CTF produced by co-expressed APP [1]: failed to alter the levels of α-CTF

ApoE2-APEX2: ApoE2 fused to APEX2 (ascorbate peroxidase 2) for proximity labeling
biotinylation of co-expressed PS2 (PS2): biotinylated
biotinylation of FL-APP and α-CTF (APP): could also be biotinylated
biotinylation of co-expressed ADAM10 (ADAM10 (α-secretase)): biotinylated
biotinylation of endogenously expressed APP [5]: biotinylates

ApoE2-V5: ApoE2 with tag protein V5 (SEQ ID NO: 82) at C-terminal
α-CTF produced by co-expressed APP [1]: can significantly increase the α-CTF

ApoE3: human apolipoprotein E3, full-length 299 amino acid residues, SEQ ID NO: 89
production of Aβ40 [4]: have no such effect
α-CTF produced by co-expressed APP [1]: can significantly increase α-CTF; also recorded: significantly increased the α-CTF levels
α-CTF produced by co-expressed APP [6]: significantly increased the α-CTF levels

ApoE4: human ApoE isoform ApoE4 (Arg112; Arg158)
production of Aβ40 [4]: have no such effect; also recorded: failed to alter
α-CTF produced by co-expressed APP [1]: cannot significantly change α-CTF
α-CTF produced by co-expressed APP [6]: failed to alter α-CTF levels

CT ND3CD25: SEQ ID NO: 32; ApoE CT minus 3 N-terminal and 25 C-terminal residues (EEMGSRTRDRLDEVKEQVAEVRAKLEEQAQQIRLQAEAFQARLKSWFEPLVEDMQR)
production of Aβ40 [4]: can still significantly reduce Aβ40

V5-ApoE2: ApoE2 with tag protein V5 (SEQ ID NO: 82) at N-terminal
α-CTF produced by co-expressed APP [1]: can significantly increase the α-CTF

Reference: patent publication US20250108100A1, “C-TERMINAL FRAGMENT OF APOLIPOPROTEIN E AND APPLICATION THEREOF IN INHIBITING y-SECRETASE ACTIVITY” (SYNPHATEC (SHANGHAI) BIOPHARMACEUTICAL TECHNOLOGY CO., LTD., priority 2022, published 2025)
